Source: US20160221932A1, “Methods and Uses of Melatonin Ligands” (priority 2013, published 2016)
Entries after “also recorded” stand apart in the source; their conditions may differ.

Key:
human MT2 receptor = target: T1, human MT2 receptor (Homo sapiens, UniProt P49286); experiment: 2-[125I]iodomelatonin competition binding, human MT2 in CHO cells
T1 construct: expressed in transfected cells
T1 sequence (P49286 1-362): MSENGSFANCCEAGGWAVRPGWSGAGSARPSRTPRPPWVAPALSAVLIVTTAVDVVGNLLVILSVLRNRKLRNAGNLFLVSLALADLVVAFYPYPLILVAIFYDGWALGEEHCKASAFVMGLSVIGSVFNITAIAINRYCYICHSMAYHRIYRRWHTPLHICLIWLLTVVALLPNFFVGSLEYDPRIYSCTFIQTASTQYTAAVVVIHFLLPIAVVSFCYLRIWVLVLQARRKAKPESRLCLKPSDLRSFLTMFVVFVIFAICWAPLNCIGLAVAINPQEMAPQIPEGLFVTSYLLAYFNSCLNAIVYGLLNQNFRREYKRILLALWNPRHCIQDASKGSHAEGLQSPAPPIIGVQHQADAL

human-cloned MT1 = target: T2, human-cloned MT1 (Homo sapiens, UniProt P48039); experiment: impedance assay in CHO cells expressing human-cloned MT1 (functional activity); format: cell-based; conditions: for activity for the MLT receptor subtype MT1 (in words): CHO cells; on MT1 Activity: key: A = ago0nist; PA = partial agonist; ANT = antagonits
T2 construct: expressed in transfected cells

[1] = target: T3, human-cloned MT2 receptors (Homo sapiens, UniProt P49286); experiment: cAMP assay in CHO cells expressing human-cloned MT2 (functional activity); format: cell-based; conditions: CHO cells
T3 construct: expressed in transfected cells
T3 sequence (P49286 1-362): T1 sequence (P49286 1-362)

Wistar rats [2] = experiment: hot plate test; format: in vivo, rat; conditions: for withdrawal temperature compared to untreated rats: summary statement, dose not stated
Protocol: Animals: Wistar rats (150-250 g, Charles-River Saint-Constant, Quebec, Canada) were used for the formalin test, hot plate test and L5-L6 spinal nerves ligature model. The animals were housed at constant room temperature and humidity under a 12 h light/dark cycle (lights on at 7 AM). Food and water were available ad libitum. Hot plate test: The hot-plate test was performed by using an electronically controlled hot-plate (Ugo Basile, Italy). The initial temperature was 38° C. A near linear increase in temperature (3° C. per min) was obtained by turning the heating adjustment to maximum. The temperature at which the fast hindpaw lick occurred was recorded as the nociceptive end-point. If no hindpaw lick was observed, the test was terminated at 52° C., and this cut-off value was used in the analysis. The plate was wiped with a wet cloth, and a fan located behind the plate allowed rapid cooling so that testing could be conducted every 7.5 min. Statistical Analysis: Data analysis was done using SigmaPlot 12 (Systat Software, Inc.). Two-way ANOVA for repeated measures was used to analyze data from L5-L6 models using treatments (between) and testing time (within) as factors. One-way ANOVA was used to analyze AUC in the L5-L6 spinal nerves ligation model. One-way ANOVA was used for formalin and hot-plate tests. Post-hoc analyses were performed using Bonferroni t-test comparisons or Student-Newman-Keuls (SNK) test. All data are expressed as mean±Standard Error of the Mean (SEM). P<0.05 was considered significant.

Wistar rats [3] = experiment: formalin test; format: in vivo, rat; conditions: for licking time vs vehicle, first phase / licking time vs vehicle, second phase / licking time vs vehicle, total time: 30 min prior to test; for licking time compared to untreated rats: summary statement, dose not stated
Protocol: Animals: Wistar rats (150-250 g, Charles-River Saint-Constant, Quebec, Canada) were used for the formalin test, hot plate test and L5-L6 spinal nerves ligature model. The animals were housed at constant room temperature and humidity under a 12 h light/dark cycle (lights on at 7 AM). Food and water were available ad libitum.
Formalin Test: Antinociception was assessed using the formalin test (Dubuisson and Dennis, 1977). Rats were placed in open Plexiglas observation chambers for 60 min to allow them to acclimatize to their surroundings; then they were removed for formalin administration. Rats were gently restrained while the dorsal surface of the right hindpaw was injected with […] of 1% formalin (37% formaldehyde solution further diluted in saline solution) with a 30-gauge needle. The animals were returned to the chambers and nociceptive behavior was observed immediately after formalin injection. Mirrors were placed in each chamber to enable unhindered observation. Licking/biting behavior directed to the formalin injected paw was scored in 5 min intervals considering number and duration of the licking. Cumulative behavior for the total duration of the test as well as the first (0-10 min) and second phase (20-50 min) was then analyzed (Sufka et al., 1998).The initial acute phase (0-10 min) was followed by a relatively short quiescent period, which was then followed by a prolonged tonic response (15-60 min). The first phase is considered to be the result of direct stimulation of nociceptors, whereas inflammation process contributes to phase 2 activity (Hunskaar and Hole, 1987). At the end of the experiment the rats were sacrificed in a CO2 chamber.
(§1) Statistical Analysis: Data analysis was done using SigmaPlot 12 (Systat Software, Inc.). Two-way ANOVA for repeated measures was used to analyze data from L5-L6 models using treatments (between) and testing time (within) as factors. One-way ANOVA was used to analyze AUC in the L5-L6 spinal nerves ligation model. One-way ANOVA was used for formalin and hot-plate tests. Post-hoc analyses were performed using Bonferroni t-test comparisons or Student-Newman-Keuls (SNK) test. All data are expressed as mean±Standard Error of the Mean (SEM). P<0.05 was considered significant.

SNI rats = experiment: spared nerve injury (SNI) model, dynamic plantar aesthesiometer; format: in vivo, rat; conditions: for mechanical withdrawal threshold compared to untreated rats: summary statement, dose not stated
Protocol: Spared nerve injury (SNI) of the sciatic nerve and measurement of allodynia with the dynamic plantar aesthesiometer. SNI was performed according to the method of Decosterd and Woolf (2000). Rats were anaesthetized with sodium pentobarbital (50 mg/kg i.p.). The sciatic nerve was exposed at mid-thigh level […] to the trifurcation and freed of connective tissue; the three peripheral branches (sural, common peroneal, and tibial nerves) of the sciatic nerve were exposed without stretching nerve structures. Both tibial and common peroneal nerves were ligated and transected together. The sham procedure consisted of the same surgery without ligation and transection of the nerves. Fourteen days after SNI, mechanical allodynia was measured using the dynamic plantar aesthesiometer (Ugo Basile, Varese, Italy). Each rat was placed and allowed to move freely in one of the two compartments of the enclosure positioned on a metal grid surface. A mechanical stimulus was delivered to the plantar surface of the rat's hind paw through the metal grid by a steel filament (Von Frey-type), connected to a movable touch-stimulator unit exerting an increasing force of 3 g per second. The force inducing paw withdrawal was recorded to the nearest 0.1 g. Nociceptive responses for mechanical sensitivity (mechanical withdrawal threshold) were measured in grams before and after vehicle or drug administration by an experimenter blind to the treatments. A single trial at each time point was performed on the ipsilateral hind paw to SNI surgery for each rat. Nociceptive responses for mechanical sensitivity were expressed as mean±SEM (g). Groups of 6-7 rats per treatment were used, with each animal being used for one treatment only.
as §1

[4] = 20 mg/kg s.c., 30 min post treatment
[5] = 20 mg/kg s.c., 1 hour post treatment
[6] = 20 mg/kg s.c., 4 hours post treatment
[7] = 40 mg/kg, 1 hour post treatment
[8] = 40 mg/kg, 4 hours post treatment

T2 sequence (P48039 whole entry): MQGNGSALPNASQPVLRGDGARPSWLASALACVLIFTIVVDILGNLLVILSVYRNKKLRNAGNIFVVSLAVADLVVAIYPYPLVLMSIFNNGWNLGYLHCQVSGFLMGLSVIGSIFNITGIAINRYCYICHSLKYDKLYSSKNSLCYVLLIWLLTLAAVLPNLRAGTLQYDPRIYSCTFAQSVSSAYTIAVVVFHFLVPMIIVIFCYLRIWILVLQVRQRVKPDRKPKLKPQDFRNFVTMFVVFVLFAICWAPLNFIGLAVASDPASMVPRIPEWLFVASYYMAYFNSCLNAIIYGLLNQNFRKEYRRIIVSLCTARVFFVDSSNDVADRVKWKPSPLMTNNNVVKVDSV

activity for the MLT receptor subtype MT1 (in words) (human-cloned MT1) | activity for the MLT receptor subtype MT2 (in words) [1] | SMILES | withdrawal temperature vs vehicle (Wistar rats [2]; [4]) | withdrawal temperature vs vehicle (Wistar rats [2]; [5]) | withdrawal temperature vs vehicle (Wistar rats [2]; [6]) | withdrawal temperature vs vehicle (Wistar rats [2]; [7]) | withdrawal temperature vs vehicle (Wistar rats [2]; [8]) | withdrawal temperature compared to untreated rats (Wistar rats [2]) | licking time vs vehicle, first phase (Wistar rats [3]; 10 mg/kg) | licking time vs vehicle, first phase (Wistar rats [3]; 20 mg/kg s.c.) | licking time vs vehicle, second phase (Wistar rats [3]; 20 mg/kg s.c.) | licking time vs vehicle, total time (Wistar rats [3]; 20 mg/kg s.c.) | licking time vs vehicle, first phase (Wistar rats [3]; 40 mg/kg) | licking time vs vehicle, second phase (Wistar rats [3]; 40 mg/kg) | licking time vs vehicle, total time (Wistar rats [3]; 40 mg/kg) | licking time compared to untreated rats (Wistar rats [3]) | reduction of the mechanical allodynia (SNI rats; 20 mg/kg s.c.) | reduction of the mechanical allodynia (SNI rats; 40 mg/kg s.c.) | mechanical withdrawal threshold compared to untreated rats (SNI rats) | further results
antagonist | partial agonist activity | CC(=O)NCCN(c1ccc(F)cc1)c1cccc(Br)c1 [5p, N-{2-[(3-Bromophenyl)-4-fluorophenylamino]ethyl}acetamide] | significant increase of the withdrawal temperature | increase of withdrawal temperature; also recorded: increased the withdrawal temperature | significant increase of withdrawal temperature; also recorded: increased the withdrawal temperature | increase of withdrawal temperature | significant increase of withdrawal temperature | significant increase in withdrawal temperature | decrease in the licking time | decrease in the licking time; also recorded: decreased the licking time | decreased the licking time; also recorded: decrease of the licking time | reduction of the licking time; also recorded: decrease in the licking time; also recorded: decreased the licking time | decrease in the licking time; also recorded: decreased the licking time | decreased the licking time | reduction of the licking time; also recorded: decreased the licking time | significantly decreased | significant reduction of the mechanical allodynia | significant reduction of the mechanical allodynia | significant decrease in mechanical withdrawal threshold | Ki (human MT2 receptor; human MT2 stably expressed in CHO cells, calculated from IC50 by Cheng and Prusoff, read-out: MT2 pKi (converted)): 537 pM; MT1 Activity (human-cloned MT1; intrinsic activity, human MT1 in CHO cells): ANT; licking time vs vehicle, second phase (Wistar rats [3]; 10 mg/kg): decreased the licking time; effect on mechanical allodynia compared with GBP 100 mg/kg, MLT 150 mg/kg and VEH (SNI rats; 20 mg/kg s.c.): greater than those produced by GBP; extent of reversal of mechanical allodynia (SNI rats; 20 and 40 mg/Kg s.c.): reversed almost completely mechanical allodynia
partial agonist activity | partial agonist activity | COc1cccc(N(CCNC(C)=O)c2ccccc2)c1 [5b, N-{2-[(3-Methoxyphenyl)-phenylamino]ethyl}acetamide] | significant increase of the withdrawal temperature | increase of withdrawal temperature; also recorded: increased the withdrawal temperature | significant increase of withdrawal temperature; also recorded: increased the withdrawal temperature | increase of withdrawal temperature | significant increase of withdrawal temperature | significant increase in withdrawal temperature | decrease in the licking time | decrease in the licking time; also recorded: decreased the licking time | decreased the licking time; also recorded: decrease of the licking time | reduction of the licking time; also recorded: decrease in the licking time; also recorded: decreased the licking time | decrease in the licking time; also recorded: decreased the licking time | decreased the licking time | reduction of the licking time; also recorded: decreased the licking time | significantly decreased | significant reduction of the mechanical allodynia | significant reduction of the mechanical allodynia | significant decrease in mechanical withdrawal threshold | MT2 affinity compared with melatonin (human MT2 receptor): better MT2 affinity than melatonin; MT2-selectivity (human MT2 receptor; MT2 versus MT1): good MT2-selectivity; MT2 pKi (human MT2 receptor; human MT2 stably expressed in CHO cells, calculated from IC50 by Cheng and Prusoff): 10.18; licking time vs vehicle, total time (Wistar rats [3]; 10 mg/kg): reduction of the licking time
